{"source": "patent US9649289B1", "about": "“Method and composition for treating dysbiosis and related disease states” (BioAvivus, LLT, priority 2016, dated 2017)", "test": "Median particle size of salsalate before and after Microfluidics homogenizer passes", "format": "physicochemical", "source_text": "Using a Microfluidics® Homogenizer 40, passes with the device take the median particle size of salsalate FIG. 1 from about 40 microns down to about 2.4 microns, as shown in FIG. 2. The resulting salsalate is formulated into unit dose oral dosages, as noted above."}
{"smiles": "O=C(Oc1ccccc1C(=O)O)c1ccccc1O", "note": "[salsalate]", "values": [{"measurement": "median particle size", "setting": "after 40 passes with Microfluidics Homogenizer (micronized salsalate of the invention)", "result": "about 2.4 microns"}, {"measurement": "median particle size", "setting": "after 40 passes with Microfluidics Homogenizer (micronized salsalate of the invention), listed as Salsalate", "result": 2.4, "unit": "microns"}, {"measurement": "median particle size", "setting": "starting (regular) salsalate, before homogenization", "result": "about 40 microns"}]}
